The record followed here is ChEMBL document CHEMBL2028040, “Malaria Box”.

One series concerns Trypanosoma cruzi. Put plainly: MMV: Inhibition of Trypanosoma cruzi (Tulahuen C4 LacZ) (Chagas in vitro). The series is classed as functional, organism-based.
The nature of series [1]: MMV: Cytotoxicity against human fibroblasts (MRC-5) cells. The following applies: MRC-5 cells (human fibroblasts).
Series [2] concerns Trypanosoma brucei brucei. Put plainly: MMV: Inhibition of Trypanosoma brucei brucei (Squib 427) (HAT in vitro). The series is classed as functional, organism-based.
In series [3] the test system is Plasmodium falciparum. The experiment in a line: MMV: Inhibition of Plasmodium falciparum 3D7 (EC50). Format: functional, organism-based.
In series [4] the test system is Plasmodium falciparum. The experiment in a line: MMV: Inhibition of Plasmodium falciparum 3D7 at 2uM compound concentration. The series is classed as functional.
The subject of series [5] is Trypanosoma brucei rhodesiense. The experiment in a line: MMV: Inhibition of Trypanosoma brucei rhodesiense (STIB 900) (HAT in vitro). Format: functional, organism-based.
The test system of another series is Leishmania infantum. The experiment in a line: MMV: Inhibition of Leishmania infantum (MHOM/MA/BE/67) in vitro. Format: functional, organism-based.

Molecules are shown by their SMILES.

Consider `Cc1ccc2c(C)nc(Nc3nc(C)cc(-c4ccccc4)n3)nc2c1`, for which the IC50 in the series on Trypanosoma cruzi was 21.1 µM; in series [1] it was over 32 µM; in series [2] it was over 32 µM; in series [5], 27.7 µM; in the series with Leishmania infantum, over 32 µM. The molecule also showed an EC50 in the series with Plasmodium falciparum [3] of 4 µM. The inhibition at 2 µM in the series with Plasmodium falciparum [4] amounted to 73%.
`OCCNc1nc(Nc2ccc(Cl)c(Cl)c2)nc2ccccc12`: the IC50 was 2.58 µM with Trypanosoma cruzi; 4.96 µM in series [1]; 3.33 µM in series [2]; 2.06 µM in series [5]; 3.01 µM with Leishmania infantum. Also, the response with Plasmodium falciparum [3] was half-maximal at 0.59 µM (EC50). In the series on Plasmodium falciparum [4], this molecule had an inhibition at 2 µM of 94%.
For `Cc1cccc(Nc2nc(N)c3ccccc3n2)c1`, the IC50 is 11.4 µM in the series on Trypanosoma cruzi; over 32 µM in series [1]; 17.6 µM in series [2]; 11.4 µM in series [5]; 4.32 µM with Leishmania infantum. In the series with Plasmodium falciparum [3], this molecule showed an EC50 of 0.4 µM. In the series with Plasmodium falciparum [4], this molecule came in with an inhibition at 2 µM of 97%.
With `Cc1ccc(Nc2nc(N)c3ccccc3n2)cc1Cl`, the IC50 in the series with Trypanosoma cruzi was found to be 3.81 µM; in series [1] it was 15.4 µM; in series [2], 3.35 µM; in series [5], 6.53 µM; in the series on Leishmania infantum, 4 µM. In addition, the response with Plasmodium falciparum [3] was half-maximal at 4 µM (EC50). Moreover, the inhibition at 2 µM in the series with Plasmodium falciparum [4] amounted to 96%.
As for `CCc1ccc(Nc2cc(C)nc3nc(C)nn23)cc1`, the half-inhibitory concentration (IC50) (in the series with Trypanosoma cruzi; in series [1]; in series [2]; in series [5]; in the series with Leishmania infantum) was over 32 µM throughout. For the same molecule, a half-maximal response in the series with Plasmodium falciparum [3] (EC50) required 4 µM. Moreover, the inhibition at 2 µM with Plasmodium falciparum [4] is 81%.
Consider `COc1ccc2nc(C)cc(Nc3ccc(Cl)cc3)c2c1`, for which the IC50 with Trypanosoma cruzi is 3.66 µM; in series [1] it was over 32 µM; in series [2], 3.57 µM; in series [5] it was 3.51 µM; in the series on Leishmania infantum, 4.06 µM. Moreover, the response in the series on Plasmodium falciparum [3] was half-maximal at 2 µM (EC50). In the series on Plasmodium falciparum [4], 2 µM produced 95% inhibition.
Take `CCOc1ccc2nc(C)cc(Nc3ccc(N(C)C)cc3)c2c1`: the IC50 came out at 13.7 µM with Trypanosoma cruzi; 18.6 µM in series [1]; 3.73 µM in series [2]; 3.49 µM in series [5]; 4 µM in the series on Leishmania infantum. This molecule registered an EC50 with Plasmodium falciparum [3] of 4 µM. Besides, the inhibition at 2 µM in the series with Plasmodium falciparum [4] turned out to be 94%.
On to `COc1cccc(Nc2nc(N)c3ccccc3n2)c1`, for which the half-inhibitory concentration (IC50) in the series with Trypanosoma cruzi was 15.8 µM; in series [1] it was over 32 µM; in series [2] it was 9.07 µM; in series [5], 12.1 µM; with Leishmania infantum, 12 µM. Also, in the series with Plasmodium falciparum [3], the EC50 was found to be 4 µM. In the series on Plasmodium falciparum [4], this molecule yielded an inhibition at 2 µM of 94%.
For `c1ccc(CNc2nc(Nc3ccccc3)nc3ccccc23)cc1`, the IC50 in the series on Trypanosoma cruzi was 1.46 µM; in series [1] it was 3.36 µM; in series [2], 3.36 µM; in series [5], 3.05 µM; in the series with Leishmania infantum, 0.707 µM. Also, a half-maximal effect in the series on Plasmodium falciparum [3] (EC50) was put at 0.776 µM. Also, the inhibition at 2 µM with Plasmodium falciparum [4] stood at 95%.
Regarding `COc1cc(SC)ccc1C(=O)N1CCCC(C)C1` (stereo unspecified), the IC50 (in the series on Trypanosoma cruzi; in series [1]; in series [2]; in series [5]; with Leishmania infantum) was over 32 µM in each case. The EC50 with Plasmodium falciparum [3] came out at 4 µM. Besides, the inhibition at 2 µM in the series on Plasmodium falciparum [4] turned out to be 45%.
Consider `CN1CCN(c2c3c(c(C#N)c4nc5ccccc5n24)CCC3)CC1`, for which the IC50 (with Trypanosoma cruzi; in series [1]; in series [2]; in series [5]; with Leishmania infantum) was over 32 µM in each case. Also, the response with Plasmodium falciparum [3] was half-maximal at 4 µM (EC50). The same molecule yielded an inhibition at 2 µM in the series on Plasmodium falciparum [4] of 42%.
Consider `CCOc1ccc(Nc2ccnc3cc(Cl)ccc23)cc1`, for which the IC50 (with Trypanosoma cruzi; in series [1]; in series [2]; in series [5]; with Leishmania infantum) was over 32 µM in each case. The molecule also gave a half-maximal effective concentration (EC50) with Plasmodium falciparum [3] of 4 µM. This molecule also returned an inhibition at 2 µM with Plasmodium falciparum [4] of 94%.
Regarding `CN(C)CCNc1cc(-c2ccccc2)nc2ccccc12`, the 50% inhibitory concentration (IC50) with Trypanosoma cruzi worked out at 7.26 µM; in series [1] it was 25.4 µM; in series [2], 3.91 µM; in series [5], 4.03 µM; with Leishmania infantum, 6.35 µM. For the same molecule, in the series with Plasmodium falciparum [3], the EC50 is 4 µM. In the series with Plasmodium falciparum [4], the inhibition at 2 µM turned out to be 92%.
Consider `CCCCc1c(C)nc2c(OC)cccc2c1O`, for which the concentration for half-maximal inhibition (IC50) (with Trypanosoma cruzi; in series [1]; in series [2]; in series [5]; in the series with Leishmania infantum) was over 32 µM in each case. In addition, the response in the series on Plasmodium falciparum [3] was half-maximal at 4 µM (EC50). Besides, the inhibition at 2 µM in the series with Plasmodium falciparum [4] is 92%.
For the molecule `CN(C)c1ccc(N2C(N)=NC(N)=NC2(C)C)cc1`, the IC50 (with Trypanosoma cruzi; in series [1]; in series [2]; in series [5]; with Leishmania infantum) was over 32 µM each time. Further, the inhibition at 2 µM with Plasmodium falciparum [4] was 95%.
On to `CCOc1ccc2nc(C)cc(Nc3ccc(Br)cc3)c2c1`, for which the IC50 turned out to be 4.22 µM in the series with Trypanosoma cruzi; 3.17 µM in series [1]; 3.6 µM in series [2]; 3.35 µM in series [5]; 4.06 µM with Leishmania infantum. The molecule also displayed an EC50 in the series on Plasmodium falciparum [3] of 0.48 µM. In the series with Plasmodium falciparum [4], this molecule showed an inhibition at 2 µM of 96%.
